Experimental data: patent US20260207777A1, “IMPROVED PEPTIDE INHIBITORS OF P53 BINDING PROTEIN 53BP1” (KAMAU THERAPEUTICS, INC., priority 2022, published 2026)

Tests used:
CD34+ HSPCs [1] = assay: validation of individual i53 variants via lentiviral expression; GFP integration by flow cytometry (HBB-UBC-GFP AAV); format: cell-based, human; settings: HBB-UBC-GFP AAV MOI=1250
Description: Sequences of individual i53 variants of interest were cloned into the lentiviral-based expression plasmid described above. Hits were validated either as pooled “validation libraries” (variant and control plasmids manually mixed to generate a pool of 5-25 variants) or individually. Lentivirus generated from these plasmids was used to transduce CD34+ HSPC cells at MOIs of 0.5-1 at day 1 post thaw. […] Cells transduced with pooled validation libraries were edited in triplicate or quadruplet; cells transduced with individual variants were edited in duplicate.
For individual testing of variants, rates of integration of the HBB-UBC-GFP donor were measured using a Beckman Coulter CytoFLEX. DAPI (Miltenyi Biotec) was used to discriminate live and dead cells. mCherry expression was used to differentiate transduced cells from untransduced cells and rates of GFP integration were compared between the two populations to quantify the impact of lentiviral-based variant expression on HDR rates. Flow cytometry data were analyzed using FlowJo 10 software.

53BP1 Tudor domain = 53BP1 Tudor domain (Homo sapiens, UniProt Q12888); assay: Bio-Layer Interferometry (BLI) with immobilized 53BP1 Tudor domain; settings: biotin-labeled immobilized 53BP1 Tudor domain; 1:1 binding model
Chain of 53BP1 Tudor domain (Q12888 1484-1603): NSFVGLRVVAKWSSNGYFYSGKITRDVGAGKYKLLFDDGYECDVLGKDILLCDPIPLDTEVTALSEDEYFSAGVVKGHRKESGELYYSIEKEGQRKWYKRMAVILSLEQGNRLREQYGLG
Experimental: Data were collected using an Octet R8 system (Sartorius). Purified 53BP1 Tudor domain was labeled at exposed primary amine groups with NHS-biotin using ChromaLINK NHS-Biotin protein labeling kit (Vector Laboratories). 1 equivalent of chromalink biotin was incubated with the 53BP1 Tudor domain for 2 hours and buffer exchanged into fresh PBS. Labeling efficiency was calculated to be approximately 1 biotin per molecule of 53BP1 Tudor domain. Octet SA Biosensor tips (Sartorius) were incubated with biotin-labeled 53BP1 Tudor domain (ligand) for 60-80 seconds. The labeled tip was then dipped in 1× binding buffer (Sartorius) for 60 seconds to remove excess ligand and achieve baseline. […] A range of analyte concentrations were tested from a highest to lowest concentration in nM (i.e. 200, 100, 50, 25, 12.5, 6.25, 3.125). The tips were then introduced to 1× binding buffer for 5 minutes and the response was continuously monitored to detect dissociation. A dissociation constant (KD) was calculated using a 1:1 binding model and the on-rate (ka) and off-rate […] were calculated as a change in response (nm) over time (sec).

CD34+ HSPCs [2] = assay: editing of CD34+ HSPCs with purified i53 variant proteins and HBB-UBC-GFP AAV donor; flow cytometry; format: cell-based, human; settings: for increase of % HDR over DM: HBB-UBC-GFP AAV MOI 1250, protein 0.4 mg/mL, GFP integration in live cells, L67R/L67H value is the average of both; for increase in levels of GFP integration over control edited without protein: HBB-UBC-GFP AAV MOI 2500, average across all concentrations tested (0.1-0.8 mg/mL) and of L67R and L67H
Experimental: (§1) Chemically-modified single guide RNAs (sgRNAs) used to edit CD34+ HSPCs at the HBB locus were purchased from Synthego. The sgRNA sequences were modified by adding 2′-O-methyl-3′-phosphorothioate at the three terminal nucleotides of the 5′ and 3′ ends. The target sequence for the HBB sgRNA is as follows: HBB: 5′[…]-3′ (SEQ ID NO: 74). Cas9 protein (SpyFi Cas9) was purchased from Aldevron. The RNPs were complexed at a Cas9:sgRNA molar ratio of 1:2.5 at 25° C. for 10-15 min prior to electroporation. Cells were collected, counted, and pelleted at 180 g×7 min. The cell pellets were resuspended in Maxcyte buffer with complexed RNPs and electroporated using a Maxcyte EXPERT ATx Nucleofector. After electroporation cells were plated at 3.5×10^5 cells/mL in media supplemented with cytokines and the desired AAV donor added at 5.0×10^2-2.5×10^4 vector genomes/cell. 24 h after nucleofection, cells were spun down, washed once with media, and seeded into AAV-free media at a density of 3.5×10^5 cells/mL.
(§2) CD34+ HPSCs were edited with protein variants 3 days post thaw and were harvested 2 days post nucleofection for NGS analysis or 3-5 days post nucleofection for GFP expression analysis. Editing reactions with proteins at a given concentration were repeated in duplicate or triplicate (either using the same CD34+ HSPC donor or across multiple donors).
Rates of targeted integration of the HBB UBC GFP donor were measured using a Beckman Coulter CytoFLEX. DAPI (Miltenyi Biotec) was used to discriminate live and dead cells. Flow cytometry data were analyzed using FlowJo 10 software.

CD34+ HSPCs [3] = assay: editing of CD34+ HSPCs with purified i53 variant proteins and HBB-SNP AAV donor; NGS of editing outcomes; format: cell-based, human; settings: for increase of % HDR over control edited without protein: FIG. 13, average across all concentrations (0.1, 0.2, 0.4 mg/mL) and of L67R and L67H; for increase in levels of HDR corrected alleles over DM / impact on % NHEJ: protein 0.4 mg/mL; for increase in levels of HDR corrected alleles over DM: L67R/L67H value is the average of both; for levels of % HDR corrected alleles: HBB-SNP AAV MOI 312.5 with protein 0.4 mg/mL, compared with 2500 MOI alone (8x the amount of AAV); for impact on % NHEJ: HBB-SNP AAV MOIs 312.5 and 2500
Experimental: as §1, §2
24 h after nucleofection, cells were spun down, washed with media, and seeded into AAV and DNAPKi-free media at a density of 3.5×10^5 cells/mL.
The frequency of homology directed repair (HDR) and other editing outcomes at HBB were measured using Next Generation Sequencing (NGS). An NGS assay was developed to determine the frequency of at the HBB locus by quantifying the total number of alleles that have been either: (1) not edited (% WT), (2) changed by HDR to incorporate sequence differences present in the AAV repair template (% HR), or (3) mutated during the genome correction process resulting in a gene that produces mutant β-globin (% INDELs).
For this assay, genomic DNA was harvested from cells using a Quick-DNA 96 Plus Kit (Zymo Research). The DNA concentration was measured using a Qubit 1×dsDNA BR assay kit (ThermoFisher). Purified genomic DNA was then used to amplify the HBB locus via polymerase chain reaction (PCR). The PCR products were diluted using nuclease-free water to serve as the template DNA for targeted NGS library prep. A second PCR with primers carrying partial Illumina adapters was performed to amplify a 142 base pair sequence that includes the region of the HBB locus that is to be corrected during the genome correction process. The PCR products were diluted again to serve as templates in a third PCR reaction using Nextera XT index primers. This third PCR reaction was used to assign unique identifiers to each sample and to add the full length adapter sequences necessary for Illumina sequencing. The size of the PCR products was assessed on an Agilent BioAnalyzer. PCR products were then pooled, purified using a Qiagen PCR purification kit, and quantified using PicoGreen in order to ready the PCR products for sequencing.
Based on the PicoGreen concentration, the library of pooled PCR products was diluted to a final concentration of 4 nM. Sequencing was performed on a MiSeq system using an Illumina MiSeq sequencing reagent kit (V2, 300 cycles). A 10% PhiX control library was added to the sample library to improve sequence diversity and to allow for error rate measurements. The library was denatured and loaded at […] onto the sequencing reagent cartridge. The sequencing entails paired-end 150 base pair reads and dual indexing reads. The sequencing data was demultiplexed based on the sample indexes provided and FASTQ files for each sample are generated.
The FASTQ files were processed using the CRISPResso2 pipeline^3. The data was reported as % WT, % corrected by HR, and % INDELs. […]

CD34+ HSPCs [4] = assay: DNA damage response (DDR) markers yH2AX and p21 in edited HSPCs; settings: protein 0.8 mg/mL; any given MOI (78.125-2500); 24 h post nucleofection
Experimental: In order to quantify the induction of the DNA damage response (DDR) pathways, a subset of edited cells was harvested 24 h post nucleofection to quantify DDR markers p21 and yH2AX^5.

Substance	rates of GFP integration in mCherry+ live cells in relation to mCherry- control cells, compared with i53 and DM (CD34+ HSPCs [1])	rate of binding compared to parent i53 (53BP1 Tudor domain)	increase of % HDR over DM (CD34+ HSPCs [2]) [%]	increase in levels of GFP integration over control edited without protein (CD34+ HSPCs [2]) [%]	increase of % HDR over control edited without protein (CD34+ HSPCs [3]; HBB-SNP AAV MOI 312.5) [%]	increase of % HDR over control edited without protein (CD34+ HSPCs [3]; HBB-SNP AAV MOI 2500) [%]	increase in levels of HDR corrected alleles over DM (CD34+ HSPCs [3]; HBB-SNP AAV MOI 312.5) [%]	levels of % HDR corrected alleles (CD34+ HSPCs [3])	increase in levels of HDR corrected alleles over DM (CD34+ HSPCs [3]; HBB-SNP AAV MOI 2500) [%]	impact on % NHEJ (CD34+ HSPCs [3])	p21 response (CD34+ HSPCs [4])	yH2AX response (CD34+ HSPCs [4])
L67H: i53 variant with His at position 67	higher rates of GFP integration	measurably increased rate of binding compared to parent i53	69	70	62	27	56	approaching those using 2500 MOI alone	44	more significant impact on % NHEJ relative to i53	–	–
L67R: i53 variant with Arg at position 67	higher rates of GFP integration	measurably increased rate of binding compared to parent i53	69	70	62	27	56	approaching those using 2500 MOI alone	44	more significant impact on % NHEJ relative to i53	not found to significantly increase	not found to significantly increase
